Assay results reported in PubChem BioAssay (NCI).
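These data come from cells grown in 96-well plates and exposed to compound for 48 hours at five concentrations. GI50 = concentration required for 50% inhibition of growth. TGI denotes the concentration required for complete inhibition of growth.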

Tests used:
Test in all cases: NCI tumour cell line growth inhibition, 48 h
786-0 renal = test system: 786-0 renal
A498 renal = test system: A498 renal
A549 NSCLC = test system: A549 NSCLC
ACHN renal = test system: ACHN renal
BT-549 breast = test system: BT-549 breast
CAKI-1 renal = test system: CAKI-1 renal
CCRF-CEM leukemia = test system: CCRF-CEM leukemia
COLO 205 colon = test system: COLO 205 colon
DU-145 prostate = test system: DU-145 prostate
EKVX NSCLC = test system: EKVX NSCLC
HCC-2998 colon = test system: HCC-2998 colon
HCT-116 colon = test system: HCT-116 colon
HCT-15 colon = test system: HCT-15 colon
HL-60(TB) leukemia = test system: HL-60(TB) leukemia
HOP-62 NSCLC = test system: HOP-62 NSCLC
HOP-92 NSCLC = test system: HOP-92 NSCLC
HS 578T breast = test system: HS 578T breast
HT29 colon = test system: HT29 colon
IGROV1 ovarian = test system: IGROV1 ovarian
K-562 leukemia = test system: K-562 leukemia
KM12 colon = test system: KM12 colon
LOX IMVI melanoma = test system: LOX IMVI melanoma
M14 melanoma = test system: M14 melanoma
MALME-3M melanoma = test system: MALME-3M melanoma
MCF7 breast = test system: MCF7 breast
MDA-MB-231 breast = test system: MDA-MB-231 breast
MDA-MB-435 = test system: MDA-MB-435
MOLT-4 leukemia = test system: MOLT-4 leukemia
NCI-H226 lung = test system: NCI-H226 lung
NCI-H23 lung = test system: NCI-H23 lung
NCI-H460 lung = test system: NCI-H460 lung
NCI-H522 lung = test system: NCI-H522 lung
NCI/ADR-RES ovarian = test system: NCI/ADR-RES ovarian
OVCAR-3 ovarian = test system: OVCAR-3 ovarian
OVCAR-4 ovarian = test system: OVCAR-4 ovarian
OVCAR-8 ovarian = test system: OVCAR-8 ovarian
PC-3 prostate = test system: PC-3 prostate
RPMI-8226 leukemia = test system: RPMI-8226 leukemia
RXF 393 renal = test system: RXF 393 renal
SF-268 CNS = test system: SF-268 CNS
SF-295 CNS = test system: SF-295 CNS
SF-539 CNS = test system: SF-539 CNS
SK-MEL-2 melanoma = test system: SK-MEL-2 melanoma
SK-MEL-28 melanoma = test system: SK-MEL-28 melanoma
SK-MEL-5 melanoma = test system: SK-MEL-5 melanoma
SK-OV-3 ovarian = test system: SK-OV-3 ovarian
SN12C renal = test system: SN12C renal
SNB-19 CNS = test system: SNB-19 CNS
SNB-75 CNS = test system: SNB-75 CNS
SR leukemia = test system: SR leukemia
SW-620 colon = test system: SW-620 colon
T-47D breast = test system: T-47D breast
TK-10 renal = test system: TK-10 renal
U251 CNS = test system: U251 CNS
UO-31 renal = test system: UO-31 renal
OVCAR-5 ovarian = test system: OVCAR-5 ovarian
UACC-257 melanoma = test system: UACC-257 melanoma

## COC(=O)CCCCCN=Cc1c(O)c(O)c(C(C)C)c2cc(C)c(-c3c(C)cc4c(C(C)C)c(O)c(O)c(C=NCCCCCC(=O)OC)c4c3O)c(O)c12
786-0 renal
  GI50: 1.77 µM
  TGI: 14.7 µM
A498 renal
  GI50: 2.74 µM
  TGI: > 32.5 µM
A549 NSCLC
  GI50: 1.35 µM
  TGI: > 32.5 µM
ACHN renal
  GI50: 1.42 µM
  TGI: > 32.5 µM
BT-549 breast
  GI50: 3 µM
  TGI: > 32.5 µM
CAKI-1 renal
  GI50: 6.17 µM
  TGI: > 32.5 µM
CCRF-CEM leukemia
  GI50: 0.946 µM
  TGI: 11.1 µM
COLO 205 colon
  GI50: 1.18 µM
  TGI: 13.2 µM
DU-145 prostate
  GI50: 1.78 µM
  TGI: 21.1 µM
EKVX NSCLC
  GI50: 1.18 µM
  TGI: > 32.5 µM
HCC-2998 colon
  GI50: 2.15 µM
  TGI: > 32.5 µM
HCT-116 colon
  GI50: 1.23 µM
  TGI: > 32.5 µM
HCT-15 colon
  GI50: 1.55 µM
  TGI: > 32.5 µM
HL-60(TB) leukemia
  GI50: 1.09 µM
  TGI: 7.93 µM
HOP-62 NSCLC
  GI50: 1.35 µM
  TGI: 28.1 µM
HOP-92 NSCLC
  GI50: 0.797 µM
  TGI: 2.88 µM
HS 578T breast
  GI50: 1.68 µM
  TGI: > 32.5 µM
HT29 colon
  GI50: 1.29 µM
  TGI: > 32.5 µM
IGROV1 ovarian
  GI50: 1.76 µM
  TGI: > 32.5 µM
K-562 leukemia
  GI50: 1.07 µM
  TGI: 6.03 µM
KM12 colon
  GI50: 1.28 µM
  TGI: > 32.5 µM
LOX IMVI melanoma
  GI50: 1.28 µM
  TGI: 4.82 µM
M14 melanoma
  GI50: 2.3 µM
  TGI: 25.9 µM
MALME-3M melanoma
  GI50: 2.45 µM
  TGI: > 32.5 µM
MCF7 breast
  GI50: 1.04 µM
  TGI: 5.83 µM
MDA-MB-231 breast
  GI50: 1.36 µM
  TGI: > 32.5 µM
MDA-MB-435
  GI50: 1.82 µM
  TGI: > 32.5 µM
MOLT-4 leukemia
  GI50: 1.05 µM
  TGI: 16.5 µM
NCI-H226 lung
  GI50: 3.15 µM
  TGI: 19 µM
NCI-H23 lung
  GI50: 1.32 µM
  TGI: > 32.5 µM
NCI-H460 lung
  GI50: 1.28 µM
  TGI: 8.42 µM
NCI-H522 lung
  GI50: 0.968 µM
  TGI: 6.52 µM
NCI/ADR-RES ovarian
  GI50: 9.04 µM
  TGI: > 32.5 µM
OVCAR-3 ovarian
  GI50: 1.27 µM
  TGI: > 32.5 µM
OVCAR-4 ovarian
  GI50: 1.05 µM
  TGI: > 32.5 µM
OVCAR-8 ovarian
  GI50: 1.27 µM
  TGI: > 32.5 µM
PC-3 prostate
  GI50: 1.03 µM
  TGI: > 32.5 µM
RPMI-8226 leukemia
  GI50: 0.946 µM
  TGI: 15.1 µM
RXF 393 renal
  GI50: 0.851 µM
  TGI: 4.65 µM
SF-268 CNS
  GI50: 1.51 µM
  TGI: > 32.5 µM
SF-295 CNS
  GI50: 0.911 µM
  TGI: 5.34 µM
SF-539 CNS
  GI50: 1.6 µM
  TGI: > 32.5 µM
SK-MEL-2 melanoma
  GI50: 2.2 µM
  TGI: 28.7 µM
SK-MEL-28 melanoma
  GI50: 1.95 µM
  TGI: > 32.5 µM
SK-MEL-5 melanoma
  GI50: 4.46 µM
  TGI: 12.6 µM
SK-OV-3 ovarian
  GI50: 1.51 µM
  TGI: 20 µM
SN12C renal
  GI50: 1.3 µM
  TGI: > 32.5 µM
SNB-19 CNS
  GI50: 1.21 µM
  TGI: > 32.5 µM
SNB-75 CNS
  GI50: 2.55 µM
  TGI: > 32.5 µM
SR leukemia
  GI50: 1.09 µM
  TGI: 9.61 µM
SW-620 colon
  GI50: 1.37 µM
  TGI: > 32.5 µM
T-47D breast
  GI50: 1.25 µM
  TGI: 29.4 µM
TK-10 renal
  GI50: 1.15 µM
  TGI: > 32.5 µM
U251 CNS
  GI50: 1 µM
  TGI: 5.6 µM
UO-31 renal
  GI50: 1.24 µM
  TGI: > 32.5 µM

## CC(=Nc1ccncc1)C(C)=Nc1ccncc1
786-0 renal
  TGI: > 100 µM
A498 renal
  TGI: > 100 µM
A549 NSCLC
  TGI: > 100 µM
ACHN renal
  TGI: 27.5 µM
BT-549 breast
  TGI: 42.3 µM
CAKI-1 renal
  TGI: 30.4 µM
CCRF-CEM leukemia
  TGI: 85.5 µM
COLO 205 colon
  TGI: 31 µM
DU-145 prostate
  TGI: > 100 µM
EKVX NSCLC
  TGI: 48.7 µM
HCC-2998 colon
  TGI: 47.9 µM
HCT-116 colon
  TGI: 83.9 µM
HCT-15 colon
  TGI: 27.5 µM
HL-60(TB) leukemia
  TGI: 87.2 µM
HOP-62 NSCLC
  TGI: 49.4 µM
HOP-92 NSCLC
  TGI: 83.5 µM
HS 578T breast
  TGI: 98.9 µM
HT29 colon
  TGI: 38.2 µM
IGROV1 ovarian
  TGI: 35.3 µM
K-562 leukemia
  TGI: > 100 µM
KM12 colon
  TGI: > 100 µM
LOX IMVI melanoma
  TGI: 42.1 µM
M14 melanoma
  TGI: 34.8 µM
MALME-3M melanoma
  TGI: 37.3 µM
MCF7 breast
  TGI: 38.3 µM
MDA-MB-231 breast
  TGI: 62.6 µM
MDA-MB-435
  TGI: 97.7 µM
MOLT-4 leukemia
  TGI: 52.7 µM
NCI-H226 lung
  TGI: > 100 µM
NCI-H23 lung
  TGI: 32.6 µM
NCI-H460 lung
  TGI: > 100 µM
NCI-H522 lung
  TGI: 35.3 µM
NCI/ADR-RES ovarian
  TGI: > 100 µM
OVCAR-3 ovarian
  TGI: 28.8 µM
OVCAR-4 ovarian
  TGI: 27.4 µM
OVCAR-5 ovarian
  TGI: 31.9 µM
OVCAR-8 ovarian
  TGI: > 100 µM
PC-3 prostate
  TGI: 38.9 µM
RPMI-8226 leukemia
  TGI: 45 µM
RXF 393 renal
  TGI: 59.8 µM
SF-268 CNS
  TGI: > 100 µM
SF-295 CNS
  TGI: > 100 µM
SF-539 CNS
  TGI: 35.1 µM
SK-MEL-2 melanoma
  TGI: 45.1 µM
SK-MEL-28 melanoma
  TGI: > 100 µM
SK-MEL-5 melanoma
  TGI: 47.1 µM
SK-OV-3 ovarian
  TGI: > 100 µM
SN12C renal
  TGI: 30 µM
SNB-19 CNS
  TGI: 68.5 µM
SNB-75 CNS
  TGI: > 100 µM
SR leukemia
  TGI: 67 µM
SW-620 colon
  TGI: > 100 µM
T-47D breast
  TGI: 77.7 µM
TK-10 renal
  TGI: > 100 µM
U251 CNS
  TGI: 69.1 µM
UACC-257 melanoma
  TGI: > 100 µM
UO-31 renal
  TGI: 30.8 µM
